ChEMBL document CHEMBL6096672, “In Silico Enabled Discovery of KAI-11101, a Preclinical DLK Inhibitor for the Treatment of Neurodegenerative Disease and Neuronal Injury” (J Med Chem, 2025)
≈ marks a conversion by molar mass, not a printed value.

Legend:
[1] = Intrinsic clearance in human liver microsomes; format: ADME, Microsome; conditions: read-out: CLH
[2] = Inhibition of GST-tagged DLK (1 to 520 residues)(unknown origin) using MKK4 as substrate preincubated for 60 mins followed by substrate/ATP addition measured after 30 mins by HTRF assay; set-up: species or system Homo sapiens
[3] = Inhibition of human DLK transfected in HEK293-T-REx cells assessed as decrease in JNK phosphorylation incubated for 5 hrs by HTRF assay; format: cell-based
[4] = Intrinsic clearance in mouse liver microsomes; format: ADME, Microsome; conditions: read-out: CLH
[5] = Ratio of unbound drug concentration in brain to plasma of mouse at 5 mg/kg; format: ADME, organism-based; conditions: brain and plasma, read-out: K(p,uu,brain)
[6] = molecular target: CYP3A4 (Homo sapiens, UniProt P08684); assay: Time dependent inhibition of CYP3A4 (unknown origin) at 30 uM incubated for 30 mins relative to control; format: ADME; conditions: read-out: TDI
Sequence of CYP3A4 (P08684 whole entry): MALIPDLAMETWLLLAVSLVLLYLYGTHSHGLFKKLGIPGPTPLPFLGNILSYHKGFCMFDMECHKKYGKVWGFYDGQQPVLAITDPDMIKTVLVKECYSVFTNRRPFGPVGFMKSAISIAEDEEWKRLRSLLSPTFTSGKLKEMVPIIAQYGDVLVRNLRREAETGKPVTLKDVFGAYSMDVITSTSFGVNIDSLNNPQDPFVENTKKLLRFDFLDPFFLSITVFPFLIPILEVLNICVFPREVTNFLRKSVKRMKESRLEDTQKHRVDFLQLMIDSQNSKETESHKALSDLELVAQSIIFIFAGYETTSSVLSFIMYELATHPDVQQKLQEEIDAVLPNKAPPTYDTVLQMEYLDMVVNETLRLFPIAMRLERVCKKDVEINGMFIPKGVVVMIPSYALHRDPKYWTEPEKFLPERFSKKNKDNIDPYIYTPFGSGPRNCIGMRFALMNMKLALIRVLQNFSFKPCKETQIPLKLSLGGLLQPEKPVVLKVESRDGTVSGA

[7] = Efflux ratio in MDCK-MDR1 cells; format: ADME, cell-based, Canis lupus familiaris; conditions: dog
[8] = Apparent permeability across apical to basal side in MDCK-MDR1 cells; format: ADME, cell-based, Canis lupus familiaris; conditions: dog
[9] = molecular target: Voltage-gated inwardly rectifying potassium channel KCNH2 (Homo sapiens, UniProt Q12809); assay: Inhibition of hERG by patch-clamp method; format: toxicity
Sequence of Voltage-gated inwardly rectifying potassium channel KCNH2 (Q12809 whole entry): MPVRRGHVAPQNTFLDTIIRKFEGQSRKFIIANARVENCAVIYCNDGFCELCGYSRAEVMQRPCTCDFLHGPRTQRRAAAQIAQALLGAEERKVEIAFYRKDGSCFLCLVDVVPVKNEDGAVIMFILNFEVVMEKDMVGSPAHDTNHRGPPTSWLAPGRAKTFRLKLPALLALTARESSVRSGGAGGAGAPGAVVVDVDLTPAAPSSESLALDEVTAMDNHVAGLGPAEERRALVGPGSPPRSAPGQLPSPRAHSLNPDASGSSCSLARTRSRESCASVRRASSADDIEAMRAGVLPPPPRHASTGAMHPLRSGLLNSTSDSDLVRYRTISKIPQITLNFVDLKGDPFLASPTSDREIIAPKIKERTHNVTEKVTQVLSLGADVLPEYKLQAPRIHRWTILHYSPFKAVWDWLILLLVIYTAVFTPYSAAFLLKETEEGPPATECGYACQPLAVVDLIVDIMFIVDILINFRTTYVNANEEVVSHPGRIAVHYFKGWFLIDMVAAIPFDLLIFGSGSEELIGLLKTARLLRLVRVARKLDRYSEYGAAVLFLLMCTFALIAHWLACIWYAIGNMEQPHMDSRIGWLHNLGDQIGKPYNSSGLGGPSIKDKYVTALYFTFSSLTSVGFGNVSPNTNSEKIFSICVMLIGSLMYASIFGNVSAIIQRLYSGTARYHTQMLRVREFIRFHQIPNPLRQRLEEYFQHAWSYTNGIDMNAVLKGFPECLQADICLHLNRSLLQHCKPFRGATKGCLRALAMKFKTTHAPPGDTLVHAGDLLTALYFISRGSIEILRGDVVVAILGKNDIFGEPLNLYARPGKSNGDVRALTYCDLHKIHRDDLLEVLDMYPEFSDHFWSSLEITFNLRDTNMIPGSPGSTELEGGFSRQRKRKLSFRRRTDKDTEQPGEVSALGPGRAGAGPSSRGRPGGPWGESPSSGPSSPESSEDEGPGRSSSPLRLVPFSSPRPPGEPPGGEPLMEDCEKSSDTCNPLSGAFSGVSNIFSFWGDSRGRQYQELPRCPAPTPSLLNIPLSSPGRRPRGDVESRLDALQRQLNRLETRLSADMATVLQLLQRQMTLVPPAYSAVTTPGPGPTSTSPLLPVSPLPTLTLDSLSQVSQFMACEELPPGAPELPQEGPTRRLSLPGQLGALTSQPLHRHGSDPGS

[10] = Energy of neutralization, pKa of compound; format: physicochemical
[11] = Intrinsic clearance in dog liver microsomes; format: ADME, Canis lupus familiaris, Microsome; conditions: read-out: CLH
[12] = Kinetic solubility of compound at pH 6.8; format: physicochemical; conditions: buffer, read-out: Kinetic_solubility

Row | Structure (SMILES) | Ki [2] [nM] | IC50 [3] [nM] | Kp uu [5] | further results
1 | Nc1ncc(-c2ccc3ncsc3n2)cc1C(F)(F)F | 416 | – | – | –
2 | CCc1nc(-c2cnc(N)c(OC(F)(F)F)c2)c2cc(C)c([C@H]3COCCN3C)cn12 | 5.3 | 290 | – | inhibition at 0.5 h, 30 µM [6]: 70%
3 | CCc1nc(-c2cnc(N)c(C(F)(F)F)c2)c2ccc([C@H]3CN(C)CCO3)cn12 | 2.5 | 100 | – | IC50 [9]: 6.9 µM; pKa [10]: 6.8
4 | Nc1ncc(-c2c[nH]c3cccnc23)cc1C(F)(F)F | 194 | – | – | –
5 | Nc1ncc(-c2cc3cn[nH]c3c(C3CC3)n2)cc1C(F)(F)F | 59 | – | – | –
6 | CCc1nc(-c2cnc(N)c(OC(F)(F)F)c2)c2ccc(C3(N4CCOCC4)CC3)cn12 | 0.7 | 31 | – | IC50 [9]: 17 µM; pKa [10]: 5.1
7 | CC(C)c1ccc2c(-c3cnc(N)c(C(F)(F)F)c3)ncn2c1 | 9.2 | 490 | – | solubility kinetic [12]: 10 µM (≈ 3.2 µg/mL)
8 | CCc1nc(-c2cnc(N)c(C(F)(F)F)c2)c2ccc(C3CCOCC3)cn12 | – | – | – | microsomal CLint [1]: 27 µL/min/mg; efflux ratio [7]: 0.8; solubility kinetic [12]: 1 µM (≈ 0.39 µg/mL); microsomal CLint [4]: 9 µL/min/mg; Papp A→B [8]: 12.3 ×10⁻⁶ cm/s
9 | CO[C@H](C)c1nc(-c2cnc(N)c(C(F)(F)F)c2)c2ccc(C3CCN(C)CC3)cn12 | 1.2 | 54 | – | IC50 [9]: 1.3 µM
10 | CN1CCC(c2ccc3c(-c4cnc(N)c(C(F)(F)F)c4)nc(C#N)n3c2)CC1 | 4.8 | 162 | – | –
11 | CN1CCC(c2ccc3c(-c4cnc(N)c(C(F)(F)F)c4)nc([C@@H]4CCCO4)n3c2)CC1 | 0.7 | 22 | – | IC50 [9]: 0.8 µM
12 | CCc1nc(-c2cnc(N)c(OC(F)(F)F)c2)c2ccc([C@H]3CC(=O)N(C)C3)cn12 | 0.77 | 70 | – | inhibition at 0.5 h, 30 µM [6]: 81%

Now from value to molecule, other results behind:

Row | Ki [2] [nM] | IC50 [3] [nM] | Kp uu [5] | Structure (SMILES) | further results
13 | 10.5 | 440 | 0.5 | CCn1nc(-c2cnc(N)c(OC(F)(F)F)c2)c2ccn(C3COC3)c(=O)c21 | microsomal CLint [1]: 9.2 µL/min/mg; microsomal CLint [4]: 24 µL/min/mg
14 | 1.9 | 85 | 0.43 | CCn1nc(-c2cnc(N)c(OC(F)(F)F)c2)c2ccn([C@@H]3CCOC[C@H]3OC)c(=O)c21 | microsomal CLint [1]: 9.3 µL/min/mg; microsomal CLint [4]: 24 µL/min/mg
15 | 1.2 | 103 | 0.42 | CCn1nc(-c2cnc(N)c(OC(F)(F)F)c2)c2ccc([C@H]3COCCN3C)cc21 | inhibition at 0.5 h, 30 µM [6]: 15%; efflux ratio [7]: 0.4; Papp A→B [8]: 24.1 ×10⁻⁶ cm/s
16 | 3 | 130 | 0.15 | CCn1nc(-c2cnc(N)c(OC(F)(F)F)c2)c2ccn(C3CCN(C4COC4)CC3)c(=O)c21 | microsomal CLint [1]: 7.9 µL/min/mg; microsomal CLint [4]: 8.3 µL/min/mg
17 | 0.58 | 32 | 0.15 | CCn1nc(-c2cnc(N)c(OC(F)F)c2)c2ccn([C@H]3CCOC[C@H]3OC3CC3)c(=O)c21 | –
18 | 1.8 | 180 | 0.24 | CCn1nc(-c2cnc(N)c(C(F)(F)F)c2)c2ccn([C@@H]3CCOC[C@@H]3OC3CC3)c(=O)c21 | –
19 | 1.2 | 104 | – | CCc1nc(-c2cnc(N)c(OC(F)(F)F)c2)c2ccc([C@H]3COCC4(CC4)N3C)cn12 | inhibition at 0.5 h, 30 µM [6]: 67%; IC50 [9]: 30 µM
20 | 1.9 | 94 | 0.41 | CCn1nc(-c2cnc(N)c(OC(F)(F)F)c2)c2ccn([C@@H]3CCOC[C@@H]3OC)c(=O)c21 | microsomal CLint [1]: 14 µL/min/mg; microsomal CLint [11]: 96 µL/min/mg; microsomal CLint [4]: 8.3 µL/min/mg
21 | 2.2 | 200 | – | CCn1nc(-c2cnc(N)c(OC(F)(F)F)c2)c2ccn([C@H]3CC4(CC4)OC[C@H]3OC)c(=O)c21 | microsomal CLint [1]: 3.2 µL/min/mg; microsomal CLint [11]: 5.4 µL/min/mg; microsomal CLint [4]: 9.7 µL/min/mg
22 | 1.6 | 84 | – | CCc1nc(-c2cnc(N)c(OC(F)(F)F)c2)c2ccc(C3CCOCC3)nn12 | inhibition at 0.5 h, 30 µM [6]: 78%
23 | 2.4 | 94 | – | CCn1nc(-c2cnc(N)c(OC(F)(F)F)c2)c2ccc([C@H]3COCCN3C)nc21 | inhibition at 0.5 h, 30 µM [6]: 14%
24 | 7.1 | 450 | – | CCc1nc(-c2cnc(N)c(OC(F)(F)F)c2)c2cc(Cl)c([C@H]3COCCN3C)cn12 | inhibition at 0.5 h, 30 µM [6]: 67%
25 | 1.5 | 110 | 0.38 | CCn1nc(-c2cnc(N)c(OC(F)(F)F)c2)c2ccn([C@@H](C)C3CC3)c(=O)c21 | microsomal CLint [1]: < 4 µL/min/mg; microsomal CLint [4]: 10 µL/min/mg
26 | 1.3 | 140 | 0.29 | CCn1nc(-c2cnc(N)c(OC(F)(F)F)c2)c2ccn([C@@H]3CCCOCC3)c(=O)c21 | microsomal CLint [1]: 18 µL/min/mg; microsomal CLint [4]: 25 µL/min/mg
27 | 2 | 190 | – | CCc1nc(-c2cnc(N)c(OC(F)(F)F)c2)c2ccn(C3CCOCC3)c(=O)n12 | inhibition at 0.5 h, 30 µM [6]: 87%
